Marks after values point to notes of the source that are not given here.
Experiments:
[1] = test system: human triple-negative breast cancer MDA-MB-231 xenografts; test: Inhibitory effect on human triple-negative breast cancer MDA-MB-231 xenografts in mice; assay type: in vivo, human cells in female NOD/SCID mice; conditions: dose 400 mg/kg po
Experimental: Experimental animal: female NOD/SCID mice provided by Beijing Vital River Laboratory Animal Technology Co., Ltd.
Experimental method: Female NOD/SCID mice were subcutaneously inoculated with human triple-negative breast cancer MDA-MB-231 cells. 7 days after inoculation, the mice were divided into 7 groups when the mean tumor volume was 120 to 130 mm^3 (d0), namely, the vehicle control group (5% glucose injection), the 6 mg/kg of A1 group, the 3 mg/kg or 6 mg/kg of A1+400 mg/kg of capecitabine for injection (CAP) group, the 6 mg/kg of paclitaxel injection (Taxol) group, the 6 mg/kg of Taxol+400 mg/kg of CAP group, and the 400 mg/kg of CAP group, respectively. The CAP for injection was administered intragastrically twice a week and the other drugs were administered intravenously twice a week for a total of 7 times (d0, d3, d7, d10, d14, d17, and d21). The experiment was terminated at d28. During the experiment, the body weight and tumor volume of animals were monitored twice a week, and the tumor volume (TV) was calculated. At the end of the experiment, the tumor weight was weighed and the tumor weight inhibition rate was calculated.
Methods for drug preparation: CAP was prepared by diluting with water for injection to the desired concentration, and the rest of drugs were prepared according to the method described in Example 3.

[2] = test system: prostate cancer RM-1 allografts; test: Inhibitory effect of combination with DDP on prostate cancer RM-1 allografts in mice; assay type: in vivo, mouse RM-1 cells in female C57/BL6 mice
Experimental: Experimental animal: female C57/BL6 mice provided by Beijing Vital River Laboratory Animal Technology Co., Ltd.
Experimental method: Female C57/BL6 mice were subcutaneously inoculated with mouse prostate RM-1 cells. Six days after inoculation, the mice were grouped when the mean tumor volume was about 140 mm^3 (d0). Drugs were administered intravenously (except that DDP was administered intraperitoneally) at d0, d2, d4, d6, d8, and d10 for a total of 6 times. The experiment was terminated at d15. In the A1 high-dose group, A1 was administered at a dose of 12 mg/kg for the first three times and 6 mg/kg for the last three times, with a cumulative dose of 54 mg/kg; in the A1 low-dose group, A1 was administered at a dose of 6 mg/kg for six times, with a cumulative dose of 36 mg/kg; in the DPP group, DPP was administered at a dose of 1 mg/kg for six times, with a cumulative dose of 6 mg/kg; in the vehicle control group, 5% glucose injection (at an equal volume to A1 high-dose group) was administered; in the A1+DDP-1 group, A1 was administered at a dose of 6 mg/kg for six times, with a cumulative dose of 36 mg/kg, and DPP was administered at a dose of 1 mg/kg for six times, with a cumulative dose of 6 mg/kg; in the A1+DDP-2 group, A1 was administered at a dose of 12 mg/kg for the first three times and 6 mg/kg for the last three times with a cumulative dose of 54 mg/kg, and DPP was administered at a dose of 1 mg/kg for six times, with a cumulative dose of 6 mg/kg. During the experiment, the body weight and tumor volume of animals were monitored three times a week, and the values of the tumor volume (TV), relative tumor volume (RTV), and relative tumor proliferation rate (T/C) were calculated.
Methods for drug preparation: A1: the paclitaxel cationic liposome was dissolved by adding water for injection, and then diluted with glucose and sodium chloride injection to the desired concentration; DDP: the DDP powder was dissolved in 5% glucose injection and subjected to ultrasound to formulate the desired concentration.

[3] = test system: human pancreatic cancer CFPAC-1 xenografts; test: Inhibitory effect on human pancreatic cancer CFPAC-1 xenografts in mice; assay type: in vivo, human cells in female Nu/Nu nude mice
Experimental: Experimental animal: female Nu/Nu nude mice provided by Beijing Vital River Laboratory Animal Technology Co., Ltd.
Experimental method: Female Nu/Nu nude mice were subcutaneously inoculated with human pancreatic cancer CFPAC-1 cells. 5 days after inoculation, the mice were divided into 7 groups when the mean tumor volume was 228 mm^3 (d0), namely, the vehicle control group (5% glucose injection), the 6 mg/kg of A1 group, the 3 mg/kg or 6 mg/kg of A1+20 mg/kg of gemcitabine for injection (GEM) group, the 6 mg/kg of paclitaxel injection (Taxol) group, the 6 mg/kg of Taxol+20 mg/kg of GEM group, and the 20 mg/kg of GEM group, respectively. There were 10 mice in each group. Drugs were administered intravenously (except that the GEM was administered intraperitoneally for 5 times (at the first five time points)) at d0, d3, d6, d9, d13, and d16 for a total of 6 times. After the last administration, the mice were further observed for 11 d (i.e. d27) and the experiment was terminated. During the experiment, the body weight and tumor volume of animals were monitored twice a week, and the tumor volume (TV) was calculated. At the end of the experiment, the tumor weight was weighed and the tumor weight inhibition rate was calculated.
Methods for drug preparation: A1 was prepared using the same method as in Example 2. The gemcitabine for injection was dissolved in saline to achieve the desired concentration. Paclitaxel injection (Taxol) was diluted with saline to the desired concentration.

CCCCCOC(=O)Nc1nc(=O)n([C@@H]2O[C@H](C)[C@@H](O)[C@H]2O)cc1F [CAP, capecitabine]
Tumor Volume d20 ([1]; 7 times, x ± sd, n = 10): 1708.3 ± 564.8** mm^3 | Tumor Volume d0 ([1]; d0 at grouping, before dosing, x ± sd, n = 10): 124.5 ± 19.4 mm^3 | Tumor Weight Inhibition Rate ([1]; end of experiment (d28)): 33.4% | Tumor Weight ([1]; end of experiment (d28), x ± sd, n = 10): 1.3679 ± 0.2649 g

N.N.[Cl][Pt][Cl] [DDP, Cisplatin]
Tumor Volume d15 ([2]; cumulative dose 6 mg/kg (1 mg/kg x6) i.p., d0-d10, x ± sd, n = 9): 3494.6 ± 710.9 mm^3 | Tumor Volume d0 ([2]; cumulative dose 6 mg/kg (1 mg/kg x6) i.p., d0 at grouping, before dosing, x ± sd, n = 9): 145.1 ± 22.8 mm^3 | T/C ([2]; cumulative dose 6 mg/kg i.p., d15): 77.1% | RTV ([2]; cumulative dose 6 mg/kg i.p., d15, x ± sd, n = 9): 24.9 ± 7.6

Nc1ccn([C@@H]2O[C@H](CO)[C@@H](O)C2(F)F)c(=O)n1 [GME, gemcitabine]
Tumor Volume d27 ([3]; dose 20 mg/kg ip x5, x ± sd, n = 10): 720.9 ± 152.8** mm^3 | Tumor Volume d0 ([3]; dose 20 mg/kg ip, d0 at grouping, before dosing, x ± sd, n = 10): 227.3 ± 52.8 mm^3 | Tumor Weight Inhibition Rate ([3]; dose 20 mg/kg ip, end of experiment (d27)): 48.4% | Tumor Weight ([3]; dose 20 mg/kg ip, end of experiment (d27), x ± sd, n = 10): 0.8238 ± 0.3253 g

From US20260216074A1, “USE OF PACLITAXEL CATIONIC LIPOSOME IN TREATING TUMORS” (CSPC ZHONGQI PHARMACEUTICAL TECHNOLOGY (SHIJIAZHUANG) CO., …, priority 2023, published 2026)
